{"source": "patent US20240009436A1", "about": "“LOCALIZED […] OF […] […] AGENTS USING FOCUSED ULTRASOUND” (priority 2020, published 2024)", "key": {"[1]": {"system": "vS1-vM1 circuit (wEPs in vM1)", "experiment": "Whisker-evoked potentials (wEPs) in vM1 after delivery to vS1 in anesthetized rats", "type": "in vivo, rat", "protocol": "The AU-FUS sequence [AU-FUS (in vivo); see Table 1] was tested in vivo by manipulating a specific cortical network without opening the BBB. Rat vibrissa motor cortex (vM1) receives whisker sensory information (˜80%) through projections from vibrissa sensory cortex (vS1, “Barrel cortex”). When rodent whiskers are mechanically deflected, evoked activity propagates from brainstem via thalamus to vS1, and then to vM1. During simultaneous recordings the peaks of whisker-evoked potentials (wEPs) were observed first in vS1 and ˜3.0 ms later in vM1. It was tested whether inhibiting vS1 by the novel technique would suppress wEPs in vM1 in anesthetized rats. The FUS transducer was positioned above the intact skull and focused on vS1. Using a multielectrode array, the wEPs and the whisker-evoked multi-unit activity in vM1 were monitored online. In parallel, muscimol-loaded UC-carriers were continuously (i.v.) injected. The AU-FUS sequence was applied repeatedly on vS1 to aggregate the UC-carriers and to uncage muscimol. Muscimol is an agonist of ionotropic GABAA receptors, the major receptor responsible for fast inhibitory transmission in the brain, which […] the BBB.\nThe animal was anesthetized, a small craniotomy was performed over vM1 (TZ region) or V1 for inserting a recording probe 140, and a FUS transducer 136 was positioned on the intact skull above vS1 with the help of stereotaxic coordinates and coupled with sterile ultrasound gel and water collimator.\nMuscimol-loaded UC-carriers were injected intravenously through the tail vein using an infusion pump 110. vM1 and V1 recordings were performed on separate cohorts.\nWhiskers were cut to around 15 mm length. The 8-12 largest whiskers were inserted into a glass capillary tube which was attached to a piezo actuator (T223-H4CL-503X, Piezo Systems). The piezo actuator was shielded with a custom-made copper cover. The whiskers were deflected with 120 Hz cosine pulses (292 mm/s velocity, displaced 2.34 mm in 8 ms) which were generated in LabView (National Instruments) and converted into an analog signal (DAC NI, USB-6211) which then drove the piezo actuator. Stimulus presentation was synchronized with the electrophysiological recordings with a TTL signal at stimulus onset. Whiskers were continuously stimulated at a repetition rate of 0.3 Hz.\nAll electrophysiological data were recorded with a RHD2000 system (Intan Technologies) with 30 kS/s sampling rate. All stereotaxic coordinates were determined with respect to bregma. A 32 channel Neuronexus probe (A2x16-10 mm-100-500-177-A32, 15 or 50 μm thick) attached to a motorized 3D arm (StereoDrive-960HD, Neurostar), fixed outside of the stereotaxic frame, was inserted into the vM1 (Coordinates AP: 1-2 mm, ML: 0.5-1 mm, depending on the vasculature, DV: 1.5-2 mm from pia) at 50° to the coronal plane. The probe was initially inserted ˜250-500 μm below the cortical surface. The FUS transducer was integrated with an acoustic collimator which was filled with degassed and deionized water and contained a polystyrene film (McMaster-Carr) at the end. The collimator's shape was designed according to the FUS transducer's geometry so that it would not interfere with the FUS beam. This assembly was stereotaxically positioned such that the FUS focal volume was targeted to vS1 (Coordinates AP: −2.3 mm, ML: 6 mm, DV: 3.3 mm from skull surface) at a 30° angle with respect to the sagittal plane such that the focal volume of FUS beam targeted cortical layers of vS1. […]"}, "[2]": {"system": "VEPs in primary visual cortex (V1)", "experiment": "Visually evoked potentials (VEPs) in V1 after delivery to vS1", "type": "in vivo, rat", "settings": "muscimol delivered to vS1 using AU-FUS", "protocol": "To rule out that the observed modulation of vM1 could be due to spreading of muscimol from vS1, signals were recorded from a cortical area close to vS1 but without significant connectivity with vS1: Muscimol was delivered to vS1 using AU-FUS, and the visually evoked potentials (VEPs) were measured from primary visual cortex (V1). […] V1 and vM1 recordings were done on separate cohorts. The same ultrasound parameters were used for both vS1-vM1 and vS1-V1 paradigms.\nThe protocol used for vS1-V1 was the same as vS1-vM1 paradigm with the following exceptions: FUS sonication coordinates were changed to AP: −2.3 mm, ML: 6.5 mm, DV: 3.3 mm from skull surface and FUS angle was changed from 30° to 34° to create space for electrode insertion to V1. A more lateral region of vS1 was sonicated to achieve better coupling with skull with the new angling of the FUS transducer. Electrode insertion coordinates were changed for V1 recording to AP: −5.5-6.0 mm, ML: 3.2-3.5 mm, DV: 1.6-2.0 mm to ensure that recording is done from cortical layers of V1. […] Instead of wEPs, VEPs were recorded by visual stimulation. […]\nAll electrophysiological data analysis was done in Python, version 3.6, using custom scripts. […] For wEP and VEP analysis, moving averages were calculated for a window step size of 180 whisker deflections/visual stimuli (moving step size is 1 deflection/visual stimulus). […]"}, "brain": {"system": "brain", "settings": "cited from earlier work"}, "[3]": {"settings": "rat barrel cortex; cited from earlier work"}, "[4]": {"settings": "i.v., without AU-FUS or UC-carriers"}}, "data": [{"smiles": "NCc1cc(=O)[nH]o1", "note": "[muscimol]", "values": [{"measurement": "change of wEPs in vM1, baseline vs post-treatment", "setting": "[1]; free muscimol (250 ng) and vehicle-loaded UC-carriers with AU-FUS (control)", "result": "No statistically significant changes"}, {"measurement": "systemic muscimol needed for comparable reduction of wEPs", "setting": "[1]; [4]", "result": "at least 260 μg"}, {"measurement": "systemic muscimol needed for comparable reduction of wEPs, relative to measured payload of the UC-carriers", "setting": "[1]; [4]", "result": "at least 1300 times"}, {"measurement": "time of maximum inhibition in vM1", "setting": "[1]; muscimol uncaged in vS1 by AU-FUS", "result": "≤ 20", "unit": "min"}, {"measurement": "change of wEPs in vM1, baseline vs post-treatment", "setting": "[1]; systemic injection of free muscimol (250 ng) with AU-FUS (control)", "result": "No statistically significant changes"}, {"measurement": "change of VEPs recorded from V1", "setting": "[2]", "result": "No statistically significant changes"}, {"measurement": "amount of systemic muscimol required for brain inactivation", "setting": "brain", "result": "~1.6", "unit": "mg/kg"}, {"measurement": "diffusion coefficient D", "setting": "[3]", "result": "8.7×10^−6 cm^2 s^−1"}]}]}
